The values below come from article PMC12681733, “Multifunctional kojic acid-tetrahydroisoquinoline hybrids: Synthesis, tyrosinase inhibition, and applications in the anti-browning of fresh-cut mushrooms” (Current Research in Food Science, 2025).

The structures appear in SMILES notation.

For data set [1], the target named is tyrosinase. Particulars: ref Zhang et al., 2025; cited from earlier work.
Data set [2] addresses tyrosinase (Agaricus bisporus, UniProt C7FF04). The data set can be described thus: Kinetic analysis (Lineweaver-Burk plots, L-DOPA). In kind it is biochemical, mushroom. The protocol: Reaction rates were determined using different concentrations of compounds (1.25, 2.5, and 5 μM) and L-DOPA solutions (0.5, 1, 1.5, and 2 mM).
For the next data set, the system named is zebrafish embryos. The data set is described as follows: Acute toxicity in zebrafish embryos (OECD FET No. 236). In kind it is in vivo. Particulars: 4c 25, 50, 100 μM; KA 100 μM; observed at 48 hpf. The protocol: The acute toxicity assay was conducted in accordance with the Guidelines of Organization for Economic Co-operation and Development (OECD) for the Testing of Chemicals, Fish Embryo Acute Toxicity (FET) Test, No. 236 ([OECD, 2013]). All zebrafish procedures in this study were approved by Anhui Medical University Experimental Animal Ethics Committee (Protocol No.: LLSC20241625). The zebrafish were maintained in accordance with the established protocols of the Zebrafish International Resource Center. Surviving zebrafish were humanely euthanized at the end of the study to prevent prolonged suffering. The euthanasia method involved immersion in a buffered solution of tricaine methanesulfonate at a concentration of 300 mg/L for at least 10 min, followed by confirmation of death through the cessation of gill movement and heartbeat. Carcasses were promptly frozen at −20 °C and disposed of through authorized biological waste channels.
Referring to published methods with certain modifications ([Qian et al., 2018]), 13–15 h post-fertilization (hpf) zebrafish embryos were placed in small dishes containing 5 mL of culture medium in this experiment. Different concentrations of 4c (25, 50, 100 μM) and KA (100 μM) were added to the dishes, respectively, and the experiments were repeated three times. […]

In another data set the test system is Escherichia coli. The data set is described as follows: Antibacterial activity, plate counting. Particulars: for antibacterial rate against E. coli: KA and THIQ groups, Fig. 7A. It is filed as cell-based. How it is done:
(§1) The antibacterial activity of 4c against Escherichia coli (E. coli) and Staphylococcus aureus (S. aureus) was evaluated using a modified plate counting method based on literature reports ([Ruan et al., 2024]). In this process, the strains were first activated on LB agar medium at 37 °C for 18 h. Subsequently, bacterial suspensions (1 × 10^8 CFU/mL) were prepared in fresh nutrient broth medium according to the 0.5 McFarland turbidity standard. These suspensions were then diluted to 1 × 10^5 CFU/mL for antibacterial testing. Various concentrations of 4c solutions were prepared and mixed with the 1 × 10^5 CFU/mL bacterial suspensions, with equal volumes of physiological saline added to the control group. The mixtures were incubated at 37 °C for 12 h, serially diluted, plated (100 μL) onto plate count agar medium, and incubated for 24 h at 37 °C for colony counting. Each experiment was conducted in triplicate, and the antibacterial rate was calculated using the following formula (2):(2) BacterialInhibitionrate(%)=(1−XS/X0)×100% where X0 represented the bacterial colony count of the control group post 24-h incubation, while XS denoted the average bacterial colony count of the sample group.

Another data set has as its system Staphylococcus aureus. The data set can be described thus: Antibacterial activity, plate counting. In kind it is cell-based. Particulars: for antibacterial rate against S. aureus: KA and THIQ groups, Fig. 7A. The protocol: as §1
The test system of the next data set is Botrytis cinerea. The data set can be described thus: Antifungal activity, radial growth on PDA. In kind it is cell-based. Particulars: 4c at high concentrations (5, 15, 30 μg/mL tested), 72 h. How it is done: Fungal contamination is a major cause of food spoilage. To evaluate the antifungal potential of 4c, its efficacy against the common phytopathogen Botrytis cinerea (B. cinerea) was investigated ([Zhou et al., 2025]). The assay was performed as follows: B. cinerea was first cultivated on Potato Dextrose Agar (PDA) to ensure robust growth. Subsequently, 4c was prepared at various concentrations and incorporated into PDA to form a drug-containing medium. Fungal mycelia were then inoculated onto the center of both the treatment and control plates, with the latter containing an equal volume of physiological saline instead of the compound. All plates were incubated at 27 °C for 72 h. Following incubation, the colonial growth on each Petri dish was photographed, with particular attention to the mycelial morphology and expansion. The antifungal activity was quantified by measuring the radial growth of the fungus, and the inhibition rate was calculated according to formula (3):(3) FungalInhibitionrate(%)=(1−DS/D0)×100% where D0 is the growth size of the control group, DS is the growth size of the group containing the sample group.

The subject of data set [3] is tyrosinase. The data set is described as follows: Fluorescence quenching of tyrosinase. In kind it is binding. How it is done: Fluorescence intensity quantification was performed on a spectrofluorometer (Cary Eclipse) following a literature-established protocol ([Peng et al., 2021]), a tyrosinase solution (200 U/mL) was prepared in phosphate buffer (pH = 6.8). Incremental volumes of 4c solution at identical concentrations were added to the enzyme solution. With an excitation wavelength of 280 nm, an emission slit width of 5 nm, and the mixture was recorded in the 290–450 nm emission wavelength range.

A short description of data set [4]: Stability evaluation (HPLC content). It is filed as physicochemical. The protocol:
The purpose of stability testing is to provide evidence on how the quality of an active substance varies with time under the influence of a variety of environmental factors such as temperature, humidity, and light. Compound 4c with the strongest activity was evaluated for its stability. 4c was first dissolved in acetonitrile to prepare a 100 mM stock solution. This stock solution was then diluted to a 10 mM working concentration using different pH buffer solutions (4.0, 7.0 and 9.0). The samples were aliquoted into sealed vials. These vials were placed at different temperatures (25 °C, 40 °C and 60 °C) under both light-exposed and light-protected conditions for stability testing. The content change of the compound was monitored at scheduled time intervals (0 h, 24 h and 72 h) using an HPLC method.

Data set [5] deals with tyrosinase. The data set is described as follows: UV spectra measurement. Particulars: addition of 4c. It is filed as binding. The protocol:
Following the reported methods ([Chen et al., 2022]), a 3 mL assay system was established by adding a solution of 4c (300 μM, 350 μL) and tyrosinase solution (200 U/mL, 400 μL) to 2250 μL of PBS at pH 6.8. Spectral measurements were carried out using a UV-1800 spectrophotometer with wavelength scanning from 200 to 400 nm. Three experimental controls were implemented: (1) PBS buffer as blank reference, (2) 4c solution in PBS without enzyme, and (3) enzyme solution in PBS without 4c. To ensure measurement reliability, all spectra were acquired in triplicate through independent scanning processes. Background corrections were systematically applied using corresponding control solutions for each experimental condition.

The next data set concerns fresh-cut mushrooms. The data set can be described thus: Anti-browning study on fresh-cut mushrooms. Details: species or system button mushrooms. Particulars: 100 μM sprayed, 4 °C, 7-day storage; versus KA and control. The protocol: Fresh and clean mushrooms of appropriate size were purchased from the local supermarket and their surfaces were evenly trimmed. […] CIE Lab values (L∗, a∗, and b∗) were measured using a colorimeter (NR60CP) to monitor the color changes of the fresh-cut mushrooms ([Wang et al., 2023]). The browning progression on mushroom surfaces was monitored via daily photographic documentation. The anti-browning efficacy was quantified using the total color difference (ΔE), calculated according to formula (4):(4) ΔE=[(Lt∗−Linitial∗)^2+(at∗−ainitial∗)^2+(bt∗−binitial∗)^2]^0.5

In data set [6] the test system is tyrosinase. The data set is described as follows: ANS-binding fluorescence measurement. Particulars: 4c from 0 μM to 50 μM. How it is done: An equal volume of ANS solution (80 μM) was added to the tyrosinase solution (400 U/mL). After thorough mixing, the mixture was left to stand at room temperature for 30 min. Subsequently, a specific amount of the ANS-labeled tyrosinase solution was extracted, vigorously shaken, and 4c was incrementally added dropwise to this mixture. The fluorescence spectrum of the mixture was scanned under conditions of an excitation wavelength of 390 nm, an emission slit width of 5 nm, and an emission wavelength range of 400–600 nm ([Lü et al., 2010]).

[7] abbreviates: 4c at high concentrations (5, 15, 30 μg/mL tested).
The mark [8] stands for this setting: plot of log[(F0−F)/F] against log[I].

Chain of tyrosinase (Agaricus bisporus, UniProt C7FF04) (C7FF04 1-392): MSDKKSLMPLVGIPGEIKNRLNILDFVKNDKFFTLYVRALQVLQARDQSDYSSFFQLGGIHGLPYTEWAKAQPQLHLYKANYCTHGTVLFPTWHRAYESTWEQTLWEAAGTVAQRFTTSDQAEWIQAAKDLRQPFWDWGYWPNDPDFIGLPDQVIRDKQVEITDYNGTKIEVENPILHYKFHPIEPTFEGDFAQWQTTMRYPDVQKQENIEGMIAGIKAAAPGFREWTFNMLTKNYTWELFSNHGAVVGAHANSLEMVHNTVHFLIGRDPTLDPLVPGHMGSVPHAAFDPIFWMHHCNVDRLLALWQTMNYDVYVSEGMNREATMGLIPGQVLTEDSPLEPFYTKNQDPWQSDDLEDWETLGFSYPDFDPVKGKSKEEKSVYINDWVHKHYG

As usually defined, the IC50 is the concentration that inhibits the measured activity by half. On to `Oc1ccccc1-c1nnc(S)o1` [Compound 2f, 5-(2-hydroxyphenyl)-1,3,4-oxadiazole-2-thiol], for which the concentration for half-maximal inhibition (IC50) on tyrosinase [1] was 17.7 ± 0.21 µM.
What is called Ki is a dissociation constant, usually derived from enzyme kinetics or from competition with a known ligand. `COc1ccc2c(c1)CCN(Cc1cc(=O)c(O)co1)C2` [Compound 4c]: at tyrosinase [2] (L-DOPA substrate, slope replot, read-out: inhibition constant Ki for free enzyme), the inhibition constant Ki stood at 1.48 µM. Moreover, the inhibition type result on tyrosinase [2] (Lineweaver-Burk plots) is reported as “mixed-type inhibitor”. The “acute toxicity in zebrafish embryos” value in the data set on zebrafish embryos is listed as “no significant toxic effects”. Also, the “inhibition rate against E. coli” value in the data set with Escherichia coli (setting [7]) is given as about 100%. In addition, the “inhibition rate against S. aureus” value in the data set on Staphylococcus aureus (setting [7]) was about 100%. The “inhibition rate against B. cinerea” value in the data set on Botrytis cinerea was about 90%. The compound also had a relative fluorescence intensity in the data set on tyrosinase [3] (25 μM 4c) of 52%. Besides, in the data set with tyrosinase [3] (25 μM 4c, 146.61 without inhibitor, emission peak 354 nm), the “fluorescence intensity of tyrosinase” value was found to be 76.92. In the data set with tyrosinase [3] (Kq versus maximum dynamic quenching constant), the fluorescence quenching mechanism entry is “static quenching”. The compound also yielded a Stern-Volmer quenching constant Ksv in the data set with tyrosinase [3] (Stern-Volmer plot) of 43000 L/mol. Also, in the data set with tyrosinase [3] (Stern-Volmer plot), the “bimolecular quenching constant Kq” value is 4.3 × 10^12 L mol^−1 S^−1. In the data set on tyrosinase [3] (setting [8]), the “apparent binding constant Ka” value was 15100 L/mol. In addition, the “number of binding sites n” value in the data set on tyrosinase [3] (setting [8]) was 1.11. The “content (stability testing)” value amounted to 97.01% in [4] (25℃, pH 4, 0 h); 98.10% in data set [4] (25℃, pH 4, 24 h); 98.32% in data set [4] (25℃, pH 4, 72 h); 98.63% in [4] (25℃, pH 7, 0 h); 97.48% in data set [4] (25℃, pH 7, 24 h); 98.03% in data set [4] (25℃, pH 7, 72 h). In addition, the “content (stability testing)” value in [4] (25℃, pH 9, 0 h) is reported as 97.43%; in [4] (25℃, pH 9, 24 h), 97.48%; in data set [4] (25℃, pH 9, 72 h), 97.59%; in data set [4] (40℃, pH 4, 0 h) it was 97.02%; in data set [4] (40℃, pH 4, 24 h) it was 97.50%; in [4] (40℃, pH 4, 72 h), 97.41%. The “content (stability testing)” value in data set [4] (40℃, pH 7, 0 h) is reported as 97.56%; in data set [4] (40℃, pH 7, 24 h), 96.04%; in [4] (40℃, pH 7, 72 h), 97.75%; in [4] (40℃, pH 9, 0 h), 96.51%; in [4] (40℃, pH 9, 24 h) it was 95.00%; in [4] (40℃, pH 9, 72 h), 96.12%. For the same compound, the “content (stability testing)” value in [4] (60℃, pH 7, 0 h) is on record as 96.64%; in data set [4] (60℃, pH 7, 24 h), 96.84%; in data set [4] (60℃, pH 7, 72 h), 96.62%; in [4] (60℃, pH 9, 0 h), 96.61%; in data set [4] (60℃, pH 9, 24 h), 96.04%; in data set [4] (60℃, pH 9, 72 h) it was 96.26%. In addition, the “content (stability testing)” value in data set [4] (Light, pH 7, 0 h) amounted to 96.64%; in data set [4] (Light, pH 7, 24 h), 96.84%; in [4] (Light, pH 7, 72 h) it was 96.62%; in data set [4] (Light, pH 9, 0 h) it was 96.61%; in data set [4] (Light, pH 9, 24 h) it was 96.04%; in data set [4] (Light, pH 9, 72 h), 96.26%. This compound came in with a retention rate in data set [4] (after 72 h, all pH (4.0, 7.0, 9.0) and temperatures (25, 40, 60 °C)) of over 95%. In the data set on tyrosinase [5], the “characteristic absorption peak of tyrosinase at 280 nm” value is “significant decrease”. Also, the “L∗ (lightness) of fresh-cut mushrooms” value in the data set with fresh-cut mushrooms is on record as “highest L∗ value”. Besides, the “total color difference ΔE of fresh-cut mushrooms” value with fresh-cut mushrooms is reported as “lowest ΔE value”. Further, the “maximum fluorescence intensity of ANS-TYR” value in the data set on tyrosinase [6] was “gradually increased”.
With `O=c1cc(CO)occ1O` [Kojic acid], in the data set on zebrafish embryos, the “acute toxicity in zebrafish embryos” value is listed as “partial mortality”. The “antibacterial rate against E. coli” value in the data set on Escherichia coli is “low antibacterial rates”. Further, in the data set on Staphylococcus aureus, the “antibacterial rate against S. aureus” value is on record as “low antibacterial rates”.
`c1ccc2c(c1)CCNC2` [THIQ, tetrahydroisoquinoline]: the “antibacterial rate against E. coli” value in the data set on Escherichia coli was “low antibacterial rates”. Also, in the data set on Staphylococcus aureus, the “antibacterial rate against S. aureus” value was “low antibacterial rates”.
